Format in all cases: biochemical
Assay [1] has as its target T1, DPP8 (dipeptidylpeptidase VIII) (Homo sapiens, UniProt Q6V1X1).
T1 construct: made in house
As to the kind of experiment: DPP8 IC50 measurement with Ala-Pro-pNA substrate. The following applies: Ala-Pro-pNA 300 μM, pH=7.4. The procedure: (§1) The rhFAP (fibroblast activation protein), PREP (prolyl endopeptidase), DPP4 (dipeptidylpeptidase IV), DPP8 (dipeptidylpeptidase VIII) and DPP 9 (dipeptidylpeptidase IX) enzymes were expressed before use in the in vitro assays and then purified.
(§2) IC50 measurements were conducted with the Infinite 200 instrument (Tecan Group Ltd.) and evaluated with the Magellan software.
(§3) The data were evaluated by GraFit 7 using a non-linear fit according to the following equation: […]
(§4) where y is the remaining enzyme activity compared to the non-inhibited sample, xis the final inhibitor concentration used in the assay, s is the slope factor and IC50 is the […] inhibitory concentration.
At least 8 concentrations of the FAP inhibitors examined were examined, with always the same DMSO concentration. The inhibitors were pre-incubated at 37° C. for 15 min before the Ala-Pro-pNA substrate was added. The release kinetics of pNA were measured at a wavelength of λex=405 nm for at least 10 min.

Assay [2] concerns the target T2, rhFAP (fibroblast activation protein) (Homo sapiens, UniProt Q12884).
T2 construct: made in house
T2 sequence (Q12884 1-760): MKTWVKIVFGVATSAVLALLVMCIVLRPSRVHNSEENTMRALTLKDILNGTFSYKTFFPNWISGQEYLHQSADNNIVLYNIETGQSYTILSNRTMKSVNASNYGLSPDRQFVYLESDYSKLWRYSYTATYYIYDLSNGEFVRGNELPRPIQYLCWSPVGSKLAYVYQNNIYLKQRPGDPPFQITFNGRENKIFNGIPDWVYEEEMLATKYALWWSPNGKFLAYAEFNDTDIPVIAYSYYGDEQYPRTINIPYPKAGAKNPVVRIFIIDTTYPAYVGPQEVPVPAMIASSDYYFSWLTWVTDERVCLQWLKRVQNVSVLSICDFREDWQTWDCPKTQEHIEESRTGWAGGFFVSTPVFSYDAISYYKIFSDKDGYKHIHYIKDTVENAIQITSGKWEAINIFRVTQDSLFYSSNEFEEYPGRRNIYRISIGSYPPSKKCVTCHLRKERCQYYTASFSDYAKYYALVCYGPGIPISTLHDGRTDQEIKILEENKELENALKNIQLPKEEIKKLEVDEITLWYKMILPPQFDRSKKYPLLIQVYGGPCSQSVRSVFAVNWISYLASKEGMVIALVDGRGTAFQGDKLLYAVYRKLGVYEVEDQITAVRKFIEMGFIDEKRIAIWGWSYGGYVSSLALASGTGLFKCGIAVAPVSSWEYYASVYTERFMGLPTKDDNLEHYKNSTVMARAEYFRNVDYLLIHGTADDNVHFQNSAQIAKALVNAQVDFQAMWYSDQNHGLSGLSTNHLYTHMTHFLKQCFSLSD
As to the kind of experiment: FAP IC50 measurement with Z-Gly-Pro-AMC substrate. The following applies: Z-Gly-Pro-AMC 50 μM, pH=8, 15 min pre-incubation at 37° C. The procedure: as §1, §2, §3, §4
8 concentrations of the FAP inhibitors examined were examined, with always the same DMSO concentration. The inhibitors were pre-incubated at 37° C. for 15 min before the Z-Gly-Pro-AMC substrate was added. The release kinetics of AMC were measured at an excitation wavelength λex=380 nm and emission wavelength Δem=465 nm for at least 10 min.

For assay [3], the target named is T3, PREP (prolyl endopeptidase) (Homo sapiens, UniProt P48147).
T3 construct: made in house
T3 sequence (P48147 1-710): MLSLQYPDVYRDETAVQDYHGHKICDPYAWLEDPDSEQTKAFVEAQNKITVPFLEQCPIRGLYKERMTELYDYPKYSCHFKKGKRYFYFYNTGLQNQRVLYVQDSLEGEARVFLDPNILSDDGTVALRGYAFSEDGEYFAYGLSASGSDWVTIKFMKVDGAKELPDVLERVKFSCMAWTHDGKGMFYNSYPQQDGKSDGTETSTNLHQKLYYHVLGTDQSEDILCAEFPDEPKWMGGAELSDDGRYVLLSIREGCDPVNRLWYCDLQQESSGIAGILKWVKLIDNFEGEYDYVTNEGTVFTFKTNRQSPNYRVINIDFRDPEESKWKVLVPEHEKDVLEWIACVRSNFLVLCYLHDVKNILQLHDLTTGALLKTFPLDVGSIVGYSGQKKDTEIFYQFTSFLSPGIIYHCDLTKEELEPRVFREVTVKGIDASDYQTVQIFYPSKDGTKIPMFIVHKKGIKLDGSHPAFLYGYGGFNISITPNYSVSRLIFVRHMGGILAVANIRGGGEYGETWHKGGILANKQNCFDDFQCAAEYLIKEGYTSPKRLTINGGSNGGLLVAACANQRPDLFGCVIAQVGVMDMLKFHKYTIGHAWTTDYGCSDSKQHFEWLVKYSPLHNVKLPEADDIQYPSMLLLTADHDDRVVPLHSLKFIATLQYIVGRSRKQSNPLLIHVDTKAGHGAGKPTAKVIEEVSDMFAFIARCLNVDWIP
As to the kind of experiment: PREP IC50 measurement with N-succinyl-Gly-Pro-AMC substrate. The conditions noted are these: N-succinyl-Gly-Pro-AMC 250 μM, pH=7.4. The procedure: as §1, §2, §3, §4
8 concentrations of the FAP inhibitors examined were examined, with always the same DMSO concentration. The inhibitors were pre-incubated at 37° C. for 15 min before the N-succinyl-Gly-Pro-AMC substrate was added. The release kinetics of AMC were measured at an excitation wavelength λex=380 nm and emission wavelength λem=465 nm for at least 10 min.

For assay [4], the target named is T4, DPP4 (dipeptidylpeptidase IV) (Homo sapiens, UniProt P27487).
T4 construct: made in house
Description: DPP4 IC50 measurement with Ala-Pro-pNA substrate. The following applies: Ala-Pro-pNA 25 μM, pH=7.4. As for the experimental part: as §1, §2, §3, §4
(§5) At least 8 concentrations of the FAP inhibitors examined were examined, with always the same DMSO concentration. The inhibitors were pre-incubated at 37° C. for 15 min before the Ala-Pro-pNA substrate was added.

In assay [5] the target is T5, DPP 9 (dipeptidylpeptidase IX) (Homo sapiens, UniProt Q86TI2).
T5 construct: made in house
Description: DPP9 IC50 measurement with Ala-Pro-pNA substrate. The conditions noted are these: Ala-Pro-pNA 150 μM, pH=7.4. The procedure:
as §1, §2, §3, §4, §5

Structures are written as SMILES.

A word on the IC50: it is the concentration that inhibits the measured activity by half.

T1 sequence (Q6V1X1 whole entry, species assumed): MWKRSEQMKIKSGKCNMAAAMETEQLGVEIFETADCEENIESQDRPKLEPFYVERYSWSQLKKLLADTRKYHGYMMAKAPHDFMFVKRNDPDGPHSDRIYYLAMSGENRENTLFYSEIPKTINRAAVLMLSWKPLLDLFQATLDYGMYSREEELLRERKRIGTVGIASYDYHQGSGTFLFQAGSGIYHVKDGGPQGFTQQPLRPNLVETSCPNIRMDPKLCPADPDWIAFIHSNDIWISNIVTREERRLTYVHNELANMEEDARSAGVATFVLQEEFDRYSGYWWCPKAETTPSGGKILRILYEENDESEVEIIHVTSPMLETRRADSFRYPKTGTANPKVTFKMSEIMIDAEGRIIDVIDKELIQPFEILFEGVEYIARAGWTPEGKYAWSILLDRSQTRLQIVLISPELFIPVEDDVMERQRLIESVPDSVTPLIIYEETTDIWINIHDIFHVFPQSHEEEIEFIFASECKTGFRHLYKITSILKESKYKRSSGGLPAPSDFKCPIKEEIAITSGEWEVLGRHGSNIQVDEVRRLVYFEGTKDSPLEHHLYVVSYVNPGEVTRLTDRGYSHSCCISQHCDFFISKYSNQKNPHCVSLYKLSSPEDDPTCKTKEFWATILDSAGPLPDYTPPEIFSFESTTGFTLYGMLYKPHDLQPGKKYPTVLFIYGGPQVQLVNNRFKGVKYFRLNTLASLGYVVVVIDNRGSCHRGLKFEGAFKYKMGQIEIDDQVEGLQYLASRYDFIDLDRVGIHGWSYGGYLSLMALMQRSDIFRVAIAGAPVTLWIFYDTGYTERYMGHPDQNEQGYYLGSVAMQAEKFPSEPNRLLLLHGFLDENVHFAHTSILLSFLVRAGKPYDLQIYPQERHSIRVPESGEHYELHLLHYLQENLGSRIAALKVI
T4 sequence (P27487 whole entry, species assumed): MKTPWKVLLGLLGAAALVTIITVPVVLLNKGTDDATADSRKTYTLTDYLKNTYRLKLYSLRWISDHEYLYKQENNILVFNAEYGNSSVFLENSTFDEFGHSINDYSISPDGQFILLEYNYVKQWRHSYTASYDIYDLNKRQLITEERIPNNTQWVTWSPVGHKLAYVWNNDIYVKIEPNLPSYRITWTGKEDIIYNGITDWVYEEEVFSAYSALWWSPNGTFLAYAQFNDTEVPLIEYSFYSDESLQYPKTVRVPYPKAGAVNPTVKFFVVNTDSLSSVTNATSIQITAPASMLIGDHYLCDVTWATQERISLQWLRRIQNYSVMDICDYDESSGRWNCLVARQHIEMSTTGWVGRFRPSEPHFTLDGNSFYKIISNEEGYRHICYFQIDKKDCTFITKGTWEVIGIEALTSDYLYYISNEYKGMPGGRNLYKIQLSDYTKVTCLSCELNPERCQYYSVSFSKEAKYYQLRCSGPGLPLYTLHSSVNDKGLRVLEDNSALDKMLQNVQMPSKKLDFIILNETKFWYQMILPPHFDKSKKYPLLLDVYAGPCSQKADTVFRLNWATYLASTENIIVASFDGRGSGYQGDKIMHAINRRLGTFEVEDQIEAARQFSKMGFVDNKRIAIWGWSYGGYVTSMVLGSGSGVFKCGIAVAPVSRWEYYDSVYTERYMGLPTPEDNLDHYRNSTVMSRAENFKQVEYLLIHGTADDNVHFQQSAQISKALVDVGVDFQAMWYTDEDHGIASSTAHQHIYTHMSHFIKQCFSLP
T5 sequence (Q86TI2 whole entry, species assumed): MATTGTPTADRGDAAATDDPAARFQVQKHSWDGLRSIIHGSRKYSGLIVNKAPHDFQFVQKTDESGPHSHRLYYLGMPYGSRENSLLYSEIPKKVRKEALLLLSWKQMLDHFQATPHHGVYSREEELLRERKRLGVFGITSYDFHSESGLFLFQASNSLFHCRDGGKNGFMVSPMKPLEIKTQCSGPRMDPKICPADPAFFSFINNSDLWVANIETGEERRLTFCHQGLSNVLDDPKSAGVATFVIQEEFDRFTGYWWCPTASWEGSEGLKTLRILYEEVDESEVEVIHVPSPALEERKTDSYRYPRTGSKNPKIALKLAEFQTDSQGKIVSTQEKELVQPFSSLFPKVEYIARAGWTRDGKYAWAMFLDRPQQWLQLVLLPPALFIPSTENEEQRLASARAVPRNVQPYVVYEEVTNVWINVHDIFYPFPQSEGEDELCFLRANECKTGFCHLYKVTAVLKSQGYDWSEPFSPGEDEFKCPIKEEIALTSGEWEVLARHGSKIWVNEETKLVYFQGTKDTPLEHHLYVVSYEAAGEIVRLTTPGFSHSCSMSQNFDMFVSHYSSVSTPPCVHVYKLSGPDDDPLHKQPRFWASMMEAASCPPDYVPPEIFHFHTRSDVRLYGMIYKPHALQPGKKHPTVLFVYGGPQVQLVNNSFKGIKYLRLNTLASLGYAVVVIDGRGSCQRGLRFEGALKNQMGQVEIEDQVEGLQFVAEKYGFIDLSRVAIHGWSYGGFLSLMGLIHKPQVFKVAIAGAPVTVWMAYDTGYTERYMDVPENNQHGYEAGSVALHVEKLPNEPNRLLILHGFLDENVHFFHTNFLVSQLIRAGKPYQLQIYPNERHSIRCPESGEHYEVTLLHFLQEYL

Regarding `N#C[C@@H]1CC(F)(F)CN1C(=O)CNC(=O)c1ccnc2ccccc12` [UAMC1110, (S)—N-(2-(2-cyano-4,4′-difluoropyrrolidin-1-yl)-2-oxoethyl)quinoline-4-carboxamide, reference compound], the IC50 in assay [1] was more than 10000 nM.
With `CN(CC(=O)O)C1(CCCCC(=O)N[C@@H](CCC(=O)NCCCCOc2ccc3nccc(C(=O)NCC(=O)N4CC(F)(F)C[C@H]4C#N)c3c2)C(=O)NCCCCOc2ccc3nccc(C(=O)NCC(=O)N4CC(F)(F)C[C@H]4C#N)c3c2)CN(CC(=O)O)CCN(CC(=O)O)C1` [DATA^5m.Glu.(FAPi)2, 2,2′-(6-(5-(((S)-1,5-bis((4-((4-((2-((S)-2-cyano-4,4-difluoropyrrolidin-1-yl)-2-oxoethyl)carbamoyl)quinolin-6-yl)oxy)butyl)amino)-1,5-dioxopentan-2-yl)amino)-5-oxopentyl)-6-((carboxymethyl)(methyl)amino)-1,4-diazepane-1,4-diyl)diacetic acid], the IC50 in assay [2] was found to be 0.71 ± 0.05 nM; in assay [3], 310 ± 60 nM; in assay [4], 1570 ± 60 nM; in assay [1], 2220 ± 400 nM; in assay [5], 770 ± 110 nM.
The corresponding values for `N#C[C@@H]1CC(F)(F)CN1C(=O)CNC(=O)c1ccnc2ccc(OCCCCNC(=O)CC[C@H](NC(=O)CN3CCN(CC(=O)O)CCN(CC(=O)O)CCN(CC(=O)O)CC3)C(=O)NCCCCOc3ccc4nccc(C(=O)NCC(=O)N5CC(F)(F)C[C@H]5C#N)c4c3)cc12` [DOTA.Glu.(FAPi)2, 2,2′,2″-(10-(2-(((S)-1,5-bis((4-((4-((2-((S)-2-cyano-4,4-difluoropyrrolidin-1-yl)-2-oxoethyl)carbamoyl)quinolin-6-yl)oxy)butyl)amino)-1,5-dioxopentan-2-yl)amino)-2-oxoethyl)-1,4,7,10-tetraazacyclododecan-1,4,7-triyl)triacetic acid] are 0.6 ± 0.04 nM, 1000 ± 140 nM, 540 ± 60 nM, 1030 ± 180 nM and 950 ± 110 nM.
As to `N#C[C@@H]1CC(F)(F)CN1C(=O)CNC(=O)c1ccnc2ccc(OCCCCNC(=O)CC[C@H](NC(=O)CCC(C(=O)O)N3CCN(CC(=O)O)CCN(CC(=O)O)CCN(CC(=O)O)CC3)C(=O)NCCCCOc3ccc4nccc(C(=O)NCC(=O)N5CC(F)(F)C[C@H]5C#N)c4c3)cc12` (stereo partly drawn) [DOTAGA.Glu.(FAPi)2, 2,2′,2″-(10-(4-(((S)-1,5-bis((4-((4-((2-((S)-2-cyano-4,4-difluoropyrrolidin-1-yl)-2-oxoethyl)carbamoyl)quinolin-6-yl)oxy)butyl)amino)-1,5-dioxopentan-2-yl)amino)-1-carboxy-4-oxobutyl)-1,4,7,10-tetraazacyclododecan-1,4,7-triyl)triacetic acid], the IC50 in assay [2] was found to be 0.26 ± 0.04 nM; in assay [3], 590 ± 100 nM; in assay [4], 1190 ± 80 nM; in assay [1], 29 ± 4 nM; in assay [5] it was 83 ± 1.5 nM.
